A solubility (mole fraction) (in DMF, 278.15 K) of 0.0747, a solubility (mole fraction) (in DMF, 283.15 K) of 0.0867 and a solubility (mole fraction) (in DMF, 288.15 K) of 0.0998 were found for CC(=O)c1c(C)c([N+](=O)[O-])c(C(C)(C)C)c([N+](=O)[O-])c1C in this work. It also gave a solubility (mole fraction) (in DMF, 293.15 K) of 0.113, a solubility (mole fraction) (in DMF, 298.15 K) of 0.128 and a solubility (mole fraction) (in DMF, 303.15 K) of 0.147. The solubility (mole fraction) (in DMF, 308.15 K) was 0.167, the solubility (mole fraction) (in DMF, 313.15 K) was 0.187 and the solubility (mole fraction) (in DMF, 318.15 K) was 0.211. It also gave a solubility (mole fraction) (in ethanol, 278.15 K) of 0.00197, a solubility (mole fraction) (in ethanol, 283.15 K) of 0.00243 and a solubility (mole fraction) (in ethanol, 288.15 K) of 0.003. The solubility (mole fraction) (in ethanol, 293.15 K) was 0.00367, the solubility (mole fraction) (in ethanol, 298.15 K) was 0.00444 and the solubility (mole fraction) (in ethanol, 303.15 K) was 0.00531. For the same compound, the solubility (mole fraction) (in ethanol, 308.15 K) was 0.00633, the solubility (mole fraction) (in ethanol, 313.15 K) was 0.00753 and the solubility (mole fraction) (in ethanol, 318.15 K) was 0.00892. For the same compound, the solubility (mole fraction) (in isopropanol, 278.15 K) was 0.00161, the solubility (mole fraction) (in isopropanol, 283.15 K) was 0.00204 and the solubility (mole fraction) (in isopropanol, 288.15 K) was 0.00258. It also gave a solubility (mole fraction) (in isopropanol, 293.15 K) of 0.00323, a solubility (mole fraction) (in isopropanol, 298.15 K) of 0.00408 and a solubility (mole fraction) (in isopropanol, 303.15 K) of 0.00506. For the same compound, the solubility (mole fraction) (in isopropanol, 308.15 K) was 0.0063, the solubility (mole fraction) (in isopropanol, 313.15 K) was 0.00771 and the solubility (mole fraction) (in isopropanol, 318.15 K) was 0.00933. The solubility (mole fraction) (in methanol, 278.15 K) was 0.0013, the solubility (mole fraction) (in methanol, 283.15 K) was 0.00156 and the solubility (mole fraction) (in methanol, 288.15 K) was 0.00187. It also gave a solubility (mole fraction) (in methanol, 293.15 K) of 0.00224, a solubility (mole fraction) (in methanol, 298.15 K) of 0.00267 and a solubility (mole fraction) (in methanol, 303.15 K) of 0.00318. It also gave a solubility (mole fraction) (in methanol, 308.15 K) of 0.00375, a solubility (mole fraction) (in methanol, 313.15 K) of 0.00442 and a solubility (mole fraction) (in methanol, 318.15 K) of 0.00515.
